Laboratory results reported in patent US20260232699A1, “COMPOSITIONS OF A CANNABINOID AND A KINASE INHIBITOR FOR THE TREATMENT OF CANCER” (SINOVEDA CANADA INC., priority 2023, published 2026).
Like-named read-outs stand apart in the source and are kept apart here.

Legend:
HepG2 cells = assay: HepG2 cell proliferation assay (XTT); format: cell-based, human; conditions: Homo sapiens
Experimental: HepG2 cells were obtained from the American Type Culture Collection (ATCC). Normal hepatocyte pool of cells was acquired from Xenotech. Cryopreserved cells in DMEM containing 5% DMSO were thawed and diluted 10-fold in phenol red free DMEM media containing 10% fetal bovine serum, 100 μg/ml penicillin/streptomycin, supplemented with Glutamax™ and sodium pyruvate. Subsequently, cells were centrifuged at 20 g for 10 minutes. The cells were resuspended in the same media with added Revitacell® to a concentration of […]. Ninety-six well cell culture treated flat bottom plates were seeded with 7.5×10^3 cells in 100 μl and incubated at 37° C., 7.5% CO2, >95% relative humidity for 18 hours to allow cellular adhesion after which media was replaced with like media (DMEM, IMDM, Williams E) containing 1 to 20% FBS and various test compounds (10 μg/ml to 100 ng/ml). After 48 hours (2 doublings of cells), sodium; 2-(2-methoxy-4-nitro-5-sulfonatophenyl)-3-(2-methoxy-4-nitro-5-sulfophenyl)-N-phenyltetrazol-3-ium-5-carboximidate (XTT) (300 μg/ml) was added, and cells incubated for 2 hours. Formazan production was measured at 450 nm on a Varioskan lux spectrophotometer. Non-specific absorption was measured at 660 nm and subtracted from the reference measurement at 450 nm. Experiments were performed in triplicates (n=3). […]
The objectives of this example are to, first, establish the procedure of a two-component interaction study; and second, establish a method of analysis to identify potential interactions among the two components/compounds. […] Following 48 hours of incubation, the IC50 values of various mixtures were obtained and compared with the pure compound's IC50 values and predicted/calculated IC50 values for the various mixtures. […]
Samples from the serial dilutions were analyzed by LC-MS/MS to orthogonally confirm concentrations. […]
To assess potential interactions, the IC50 values for individual cannabinoids in the control lanes were calculated and used to predict and IC50 value for the summation of their individual components.

[1] = test system: HCC PDX models 575, 658, and LI-011; assay: Clonogenic assay on patient-derived xenograft tumor cells; format: cell-based; conditions: Homo sapiens, 336 h; 575, 658, LI-011; 14 days continuous exposure; P=0.023; read-out: IC50 values, all PDX models examined
Experimental: Tumor xenografts (patient-derived: 575, […], and LI-011; as well as cell line-derived: HepG2) were passaged as subcutaneous xenografts in NMRI nu/nu mice. Once tumor volumes reached 600-1000 mm^3, tumors were harvested according to FELASA and GV-SOLAS animal welfare guidelines. Tumors were mechanically disaggregated and subsequently incubated with collagenase type IV (41 U/mL), DNase I (125 U/mL), hyaluronidase type III (100 U/mL), and dispase II (1 U/mL) in RPMI 1640 medium at 37° C. for 60-120 minutes. Cells were filtered through 100 μm and 40 μm mesh size sieves and washed with the same media devoid of enzymes and stored in liquid nitrogen vapor phase.
The clonogenic assay was carried out in 96 well, ultra-low attachment plates. Frozen aliquots of tumor cells were prepared from HepG2 HCC cells and the three tumor xenografts described above. Cells were thawed in Iscove's Modified Dulbecco's Medium (IMDM), supplemented with 20% (v/v) fetal calf serum, 50 μg/ml gentamicin, 1% ethanol, and 0.4% (w/v) agar prior to use. Test wells were first layered with 100 μl of the same soft-agar medium followed by 50 μl of media with tumor cells. Following solidification, the soft-agar layer was covered with 90 μl of the same culture medium without agar. After 24 hours, 10 μl of test compounds or control medium were added and left for 14 days (continuous exposure, 100 μl drug overlay). […]

[2] = Clinical study, patients; cited from earlier work

Question: Which IC50 (HepG2 cells; IMDM media with 20% FBS and 1% ethanol, read-out: predetermined IC50 concentrations) does the source give for `CNC(=O)c1cc(Oc2ccc(NC(=O)Nc3ccc(Cl)c(C(F)(F)F)c3)cc2)ccn1` [Sorafenib] here?
Answer: The IC50 was 12 µM.

Question: What about the IC50 (HepG2 cells; XTT, DMEM media with 20% FBS, 48 hour treatment, read-out: IC50 HepG2) of the same molecule?
Answer: The IC50 was 9.8 µg/mL.

Question: And the IC50 [1]?
Answer: The IC50 was 14.3 µM.

Question: And the Tmax [2]?
Answer: The Tmax was 2 to 9.5 h.

Question: What about the Total body clearance [2] of the same molecule?
Answer: Its Total body clearance is 1.83 mL/min/kg.

Question: And the Volume of distribution [2]?
Answer: Its Volume of distribution is 2.66 L/kg.
